≈ marks a conversion by molar mass, not a printed value.
Key:
Test in all cases: MIC, antibacterial activity (series dilution)
Assay type in all cases: cell-based
E. coli Neumann = conditions: Escherichia coli, 37° C., about 20 hours
Procedure: (§1) The MIC values were determined with the aid of the microdilution method in BH medium. Each test substance was dissolved in the nutrient medium. A concentration series of the test substances was prepared in the microtiter plate by serial dilution. Overnight cultures of the pathogens, which were first diluted 1:250 in the nutrient medium, were used for the inoculation. 100 μl portions of inoculation solution were added to 100 μl of the dilute nutrient solutions containing the active compound. The microtiter plates were incubated at 37° C. and read off after about 20 hours. The MIC value (μg/ml) indicates the lowest concentration of active compound at which no growth was detectable. The minimum inhibitory concentrations (MIC) were determined by the series dilution method on Iso-Sensitest agar (Oxoid). A series of agar plates which contained concentrations of the active compound which decreased by two-fold dilution each time was prepared for each test substance. The agar plates were inoculated with a multipoint inoculator (Denley). Overnight cultures of the pathogens which had been diluted beforehand such that each inoculation point contained about 10^4 colony-forming particles were used for the inoculation. The inoculated agar plates were incubated at 37° C. and the germ growth was read off up to about 20 hours. The MIC value (μg/ml) indicates the lowest concentration of active compound at which no growth was detectable with the naked eye.

Klebs. 57 USA = conditions: 37° C., about 20 hours
Procedure: as §1

Psdm. Bonn = conditions: 37° C., about 20 hours
Procedure: as §1

Staph 25701 = conditions: 37° C., about 20 hours
Procedure: as §1

Staph. 133 = conditions: 37° C., about 20 hours
Procedure: as §1

Staph. 48N = conditions: 37° C., about 20 hours
Procedure: as §1

Staph. 9TV = conditions: 37° C., about 20 hours
Procedure: as §1

Row | SMILES | MIC (E. coli Neumann) | MIC (Klebs. 57 USA) | MIC (Psdm. Bonn) | MIC (Staph 25701) | MIC (Staph. 133) | MIC (Staph. 48N) | MIC (Staph. 9TV)
1 | CSc1nc2ccc(N3C[C@H](CNC(C)=O)OC3=O)cc2s1 [Example 24, (5S )-3-(2-Methylthio-benzo[4,5-d]thiazol-6-yl)-5-acetylaminomethyl-oxazolidin-2-one] | > 64 µg/mL | > 64 µg/mL | > 64 µg/mL | 0.25 µg/mL (≈ 0.741 µM) | 2 µg/mL (≈ 5.93 µM) | 1 µg/mL (≈ 2.96 µM) | 0.25 µg/mL (≈ 0.741 µM)
2 | CC(=O)NC[C@H]1CN(c2ccc3nc(C)oc3c2)C(=O)O1 [Example 25, (5S)-3-(2-Methyl-benzo[4,5-d]oxazol-6-yl)-5-acetamino-methyl-oxazolidin-2-one] | > 64 µg/mL | > 64 µg/mL | > 64 µg/mL | 1 µg/mL (≈ 3.46 µM) | 2 µg/mL (≈ 6.91 µM) | 1 µg/mL (≈ 3.46 µM) | 1 µg/mL (≈ 3.46 µM)
3 | CC(=O)NC[C@H]1CN(c2ccc3nc(C)sc3c2)C(=O)O1 [Example 26] | > 64 µg/mL | > 64 µg/mL | > 64 µg/mL | 1 µg/mL (≈ 3.27 µM) | 2 µg/mL (≈ 6.55 µM) | 1 µg/mL (≈ 3.27 µM) | 1 µg/mL (≈ 3.27 µM)
4 | CC(=O)NC[C@H]1CN(c2ccc3nc([S+](C)[O-])sc3c2)C(=O)O1 (stereo partly drawn) [Example 32, (5S)-3-(2-Methylsulphinyl-benzo[4,5-d]-thiazol-6-yl)-5-acetylaminomethyl-oxazolidin-2-one] | > 64 µg/mL | > 64 µg/mL | > 64 µg/mL | 1 µg/mL (≈ 2.83 µM) | 1 µg/mL (≈ 2.83 µM) | 2 µg/mL (≈ 5.66 µM) | 0.5 µg/mL (≈ 1.41 µM)
5 | CC(=O)NC[C@H]1CN(c2ccc3nc(S(=O)(=O)Cc4ccccc4)sc3c2)C(=O)O1 [Example 33, (5S)-3-(2-Benzylsulphonyl-benzo[4,5-d]thiazol-6-yl)-5-acetylaminomethyloxazolidin-2-one] | > 64 µg/mL | > 64 µg/mL | > 64 µg/mL | 2 µg/mL (≈ 4.49 µM) | 4 µg/mL (≈ 8.98 µM) | 2 µg/mL (≈ 4.49 µM) | 4 µg/mL (≈ 8.98 µM)
6 | CC(=O)NC[C@H]1CN(c2ccc3nc([S+]([O-])Cc4ccccc4)sc3c2)C(=O)O1 (stereo partly shown) [Example 36] | > 64 µg/mL | > 64 µg/mL | > 64 µg/mL | 4 µg/mL (≈ 9.31 µM) | 4 µg/mL (≈ 9.31 µM) | 4 µg/mL (≈ 9.31 µM) | 2 µg/mL (≈ 4.66 µM)
7 | CC(=O)NC[C@H]1CN(c2ccc3nc(S(C)(=O)=O)sc3c2)C(=O)O1 [Example 37] | > 64 µg/mL | > 64 µg/mL | > 64 µg/mL | 1 µg/mL (≈ 2.71 µM) | 2 µg/mL (≈ 5.41 µM) | 2 µg/mL (≈ 5.41 µM) | 1 µg/mL (≈ 2.71 µM)
